Test systems include ACHN; HCT-116; CCRF-CEM; SK-MEL-2; SN12C; KM-20L2; A549; SF-295; A498; OVCAR-8; OVCAR-3; TK-10; UACC-62; NCI-H460; MOLT-4; SNB-19; SNB-75; HCC 2998; Hs-578T; NCI/ADR-RES.
Common to all, as to experiment: inhibition of tumour cell growth, NCI panel, 48 h

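Cells were grown in 96-well plates and exposed to each compound for 48 hours at five concentrations; endpoints were interpolated linearly between bracketing concentrations, or set to the highest concentration if not reached. Here, GI50 denotes the concentration required for 50% inhibition of growth.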 The source made the active and inactive calls. Rule as the data show it: active = GI50 up to about 1.1 µM and inactive = higher. Where only a bound is given, the exact number is not on record here.

On to `C=CC(=O)NCNC(=O)C=C`, for which the GI50 with ACHN, with HCT-116, in the test with CCRF-CEM, with SK-MEL-2, with SN12C and in the test with KM-20L2 was > 100 µM (inactive) in each case. Also, the GI50 with A549, with SF-295, in the test on A498, in the test on OVCAR-8, in the test with OVCAR-3 and with TK-10 was > 100 µM (inactive) throughout. Also, the GI50 in the test with UACC-62, in the test on NCI-H460, in the test on MOLT-4, in the test with SNB-19, in the test on SNB-75 and in the test on HCC 2998 was > 100 µM (inactive) in each case.
As for `Cc1cc(Cl)ccc1NC(=O)C(=O)Cc1ccc([N+](=O)[O-])c([N+](=O)[O-])c1CC(=O)C(=O)Nc1ccc(Cl)cc1C`, the GI50 in the test with ACHN is > 100 µM (inactive); in the test on HCT-116, > 100 µM (inactive); in the test on CCRF-CEM it was 78.7 µM (inactive); with SK-MEL-2, > 100 µM (inactive); in the test on SN12C, > 100 µM (inactive); with KM-20L2, > 100 µM (inactive). Further, the GI50 with A549 was > 100 µM (inactive); in the test on SF-295 it was > 100 µM (inactive); in the test with A498 it was > 100 µM (inactive); with OVCAR-8, > 100 µM (inactive); in the test with OVCAR-3, 70.3 µM (inactive); in the test on TK-10, > 100 µM (inactive). Also, the GI50 in the test on UACC-62, in the test with NCI-H460, in the test with MOLT-4, with SNB-19, with SNB-75 and in the test with HCC 2998 was > 100 µM (inactive) each time.
In the case of `Cc1nc(-n2nc(-c3ccccc3)cc2-c2ccccc2)sc1C(/C=C\c1ccc([N+](=O)[O-])cc1)=N/NC(=S)NN`, the GI50 in the test with ACHN was 40.3 µM (inactive); in the test on HCT-116, 19.5 µM (inactive); in the test with CCRF-CEM it was > 50.8 µM (inactive); in the test on SK-MEL-2, 44.1 µM (inactive); with Hs-578T, 25 µM (inactive); in the test with SN12C, 21.7 µM (inactive). For the same compound, the GI50 in the test on KM-20L2 was 50.6 µM (inactive); in the test with A549, 18.7 µM (inactive); in the test with SF-295, 13.8 µM (inactive); in the test with A498, > 100 µM (inactive); in the test on OVCAR-8, 16.7 µM (inactive); in the test on OVCAR-3, > 46.8 µM (inactive). Moreover, the GI50 in the test on TK-10 was 37.2 µM (inactive); in the test on NCI/ADR-RES, 26.9 µM (inactive); in the test on UACC-62, 39.1 µM (inactive); with NCI-H460, 33.5 µM (inactive); in the test with MOLT-4, > 52.5 µM (inactive); with SNB-19, > 49.3 µM (inactive). Moreover, the values for the GI50 in the test with SNB-75 and in the test on HCC 2998 were 74.3 µM (inactive) and 13.8 µM (inactive), respectively.
Take `CSc1cnc2ccccc2c1Sc1cn(C)c2ccccc2c1=O`: the GI50 was > 100 µM (inactive) with ACHN; 10.2 µM (inactive) in the test on HCT-116; 19.7 µM (inactive) with CCRF-CEM; 21.8 µM (inactive) with SK-MEL-2; 28.8 µM (inactive) with SN12C; 38.9 µM (inactive) in the test on KM-20L2. Also, the GI50 in the test with A549 was 8.17 µM (inactive); in the test with SF-295, 22.6 µM (inactive); in the test on A498, 36.2 µM (inactive); in the test with OVCAR-8 it was 18.5 µM (inactive); in the test on OVCAR-3, 28.7 µM (inactive); with TK-10 it was > 100 µM (inactive). In addition, the GI50 with UACC-62 was 21.9 µM (inactive); with NCI-H460, 13.2 µM (inactive); in the test on MOLT-4, 53.2 µM (inactive); in the test on SNB-19, 19.1 µM (inactive); in the test on SNB-75, 17 µM (inactive); in the test with HCC 2998, 70.8 µM (inactive).
As to `C=C1CC(C/C=C(\C)CC2CC(=C)C(=O)O2)OC1=O` (stereo not drawn), the GI50 in the test with ACHN, in the test with HCT-116, in the test with CCRF-CEM, in the test on SK-MEL-2, in the test with SN12C and with KM-20L2 was > 100 µM (inactive) in each case. Also, the GI50 with A549, with SF-295, in the test with A498, in the test on OVCAR-8, in the test with OVCAR-3 and with TK-10 was > 100 µM (inactive) in each case. For the same compound, the GI50 in the test on UACC-62, with NCI-H460, in the test on MOLT-4, with SNB-19, in the test with SNB-75 and with HCC 2998 was > 100 µM (inactive) each time.
In the case of `COC1=C(C)C(=O)C2=C(C1=O)C1C3CC4=C(C(=O)C(OC)=C(C)C4=O)C(CNC(=O)C(C)O)N3C(C#N)C(C2)N1C` (stereo not drawn), the GI50 was 0.157 µM (active) in the test with ACHN; 0.0465 µM (active) with HCT-116; < 0.01 µM (active) in the test on CCRF-CEM; < 0.01 µM (active) with SK-MEL-2; < 0.01 µM (active) in the test on Hs-578T; < 0.01 µM (active) with SN12C. For the same compound, the GI50 with KM-20L2 was < 0.01 µM (active); with A549, 0.166 µM (active); in the test with SF-295, 0.0579 µM (active); in the test with A498, 0.0107 µM (active); in the test with OVCAR-8, < 0.01 µM (active); with OVCAR-3, < 0.01 µM (active). Also, the GI50 was 0.0353 µM (active) in the test with TK-10; 1.46 µM (inactive) in the test with NCI/ADR-RES; < 0.01 µM (active) in the test with UACC-62; 0.0159 µM (active) in the test on NCI-H460; < 0.01 µM (active) in the test on MOLT-4; < 0.01 µM (active) in the test on SNB-19. Moreover, the figures for the GI50 with SNB-75 and in the test on HCC 2998 were < 0.0104 µM (active) and < 0.0113 µM (active), respectively.
On to `NS(=O)(=O)c1ccc(NC(=O)CC(=O)Nc2ccc(S(N)(=O)=O)cc2)cc1`, for which the GI50 in the test on ACHN, with HCT-116, in the test with CCRF-CEM, in the test with SK-MEL-2, in the test on SN12C and in the test on KM-20L2 was > 100 µM (inactive) in each case. The GI50 in the test on A549, in the test with SF-295, in the test with A498, in the test on OVCAR-8, in the test on OVCAR-3 and with TK-10 was > 100 µM (inactive) in each case. Also, the GI50 in the test on UACC-62, in the test on MOLT-4, in the test on SNB-19, with SNB-75 and with HCC 2998 was > 100 µM (inactive) throughout.
As to `CCOC(=O)C1=C(C(=O)OCC)C2(c3ccccc3)N(O1)c1ccccc1C2(C)C` (stereo not drawn), the GI50 with HCT-116 was 32.4 µM (inactive); with CCRF-CEM, 39.4 µM (inactive); in the test with SK-MEL-2 it was 30.9 µM (inactive); with KM-20L2 it was 39.1 µM (inactive); in the test with A549 it was 45.5 µM (inactive); in the test with SF-295, 45.5 µM (inactive). Also, the GI50 is 58.7 µM (inactive) with A498; 48.3 µM (inactive) in the test with OVCAR-8; 46.9 µM (inactive) in the test on OVCAR-3; > 100 µM (inactive) with TK-10; 36.5 µM (inactive) in the test on UACC-62; 39.5 µM (inactive) with NCI-H460. The GI50 in the test on MOLT-4 was 32 µM (inactive); in the test with SNB-19, 38.3 µM (inactive); in the test on SNB-75 it was 25.6 µM (inactive); in the test with HCC 2998, 93.1 µM (inactive).
`COc1cc(CNc2nc3c(N)cc(C(F)(F)F)cc3nc2-c2ccccc2)cc(OC)c1OC`: the GI50 with ACHN is 23.7 µM (inactive); in the test on HCT-116, 19.7 µM (inactive); with CCRF-CEM it was > 10 µM (inactive); in the test with SK-MEL-2, 52.1 µM (inactive); in the test with SN12C, 70.3 µM (inactive); with KM-20L2 it was 29.6 µM (inactive). Moreover, the GI50 in the test on A549 was 19 µM (inactive); with SF-295 it was 37.7 µM (inactive); with A498, 61.9 µM (inactive); with OVCAR-8, 71.1 µM (inactive); in the test with OVCAR-3, 36.1 µM (inactive); with TK-10 it was > 10 µM (inactive). In addition, the GI50 is 35.2 µM (inactive) in the test on UACC-62; 25.9 µM (inactive) in the test with NCI-H460; 8.83 µM (inactive) in the test on MOLT-4; > 10 µM (inactive) in the test with SNB-19; 89.3 µM (inactive) in the test with SNB-75; 40.6 µM (inactive) in the test with HCC 2998.
`c1nc(N2CC2)c2cnn(C3CCCCO3)c2n1` (stereo not drawn): the GI50 with ACHN, in the test on HCT-116, in the test with CCRF-CEM, in the test on SK-MEL-2, in the test on Hs-578T and in the test on SN12C was > 100 µM (inactive) each time. In addition, the GI50 in the test with KM-20L2, in the test on A549, in the test on SF-295, with A498, with OVCAR-8 and in the test on OVCAR-3 was > 100 µM (inactive) each time. Further, the GI50 in the test with TK-10, in the test on NCI/ADR-RES, with UACC-62, with NCI-H460, with MOLT-4 and with SNB-19 was > 100 µM (inactive) throughout. The GI50 in the test with SNB-75 and in the test on HCC 2998 was > 100 µM (inactive) each time.
As to `CCN(CC)CCNC(=O)c1ccc(C)c(OCc2ccccc2)c1[N+](=O)[O-]`, the GI50 is 56.8 µM (inactive) in the test on ACHN; 23 µM (inactive) in the test on HCT-116; 31.2 µM (inactive) in the test on CCRF-CEM; 21.2 µM (inactive) in the test with SK-MEL-2; 28.6 µM (inactive) with Hs-578T; 74.3 µM (inactive) with SN12C. Besides, the GI50 is 27.2 µM (inactive) in the test with KM-20L2; 44.8 µM (inactive) with A549; 24.5 µM (inactive) in the test with SF-295; 50 µM (inactive) in the test with A498; > 100 µM (inactive) with OVCAR-8; 43.9 µM (inactive) with OVCAR-3. In addition, the GI50 is 61.2 µM (inactive) in the test with TK-10; 33.4 µM (inactive) with NCI/ADR-RES; 20.7 µM (inactive) with UACC-62; 36.6 µM (inactive) with NCI-H460; 28.7 µM (inactive) in the test on MOLT-4; > 80.7 µM (inactive) in the test on SNB-19. For the same compound, the GI50 in the test with SNB-75 is 18 µM (inactive); in the test on HCC 2998, 28.8 µM (inactive).

(Values after ChEMBL document CHEMBL1201862, “PubChem BioAssay data set” (2004).)
